Source: patent US8080657B2, “Compounds of reverse turn mimetics and the use thereof” (Choongwae Pharma Corporation, priority 2008, dated 2011)
Read-outs that look alike come from different tables or passages of the source.

Experiments:
[1] = molecular target: T1, cDNA-expressed human hepatic CYP3A4 (Homo sapiens, UniProt P08684); test: P450 CYP3A4 inhibitory activity screening (BFC substrate, fluorescence); format: biochemical; settings: P450 CYP3A4 inhibitory activity screening, fluorescent assay; read-out: CYP3A4 inhibition, IC50 (μM) fluorescent assay
T1 construct: purchased BD Gentest 456202
Method: P450 CYP3A4 Inhibitory Activity Screening
Assay was conducted in a 200 μL volume in 96-well microtiter plates using cDNA-expressed human hepatic CYP3A4 (supersome, BD Gentest™ #456202). 7-Benzyloxy-4-trifluoromethyl-coumarin (BFC) was used as a substrate for CYP3A4. Test articles and substrate BFC were dissolved in 100% acetonitrile. The final volume of acetonitrile in the incubation mixture was less than 1% (volume/volume). Potassium phosphate buffer (pH 7.4, final concentration 0.1 M), MgCl2 (final concentration 8.3 mM), EDTA (final concentration 1.67 mM), a test article stock solution, a CYP3A4 supersome and NADPH (final concentration 0.25 mM) were added to each well. The reaction was initiated by the addition of substrate (BFC, final concentration 30 µM) after a 10 min pre-incubation at 37° C. After 10 min incubation at 37° C., the reaction was terminated by the addition of 75 μL of acetonitrile:0.5 M Tris-base=4:1 (volume/volume). Thereafter, Fluorescent signal was measured using a fluorometer. BFC metabolite, 7-hydroxy-4-trifluoromethyl-coumarin, was measured using an excitation wavelength of 409 nm and an emission wavelength of 530 nm.

[2] = test system: Wnt signaling; test: TopFlash reporter gene bioassay in SW480 cells; format: cell-based; settings: read-out: RGA, IC50 (μM) TopF
[3] = Homo sapiens, SW480, TopFlash reporter gene assay, inhibition of Wnt signaling
[4] = TopFlash reporter gene assay, inhibition of Wnt signaling

T1 sequence (P08684 whole entry): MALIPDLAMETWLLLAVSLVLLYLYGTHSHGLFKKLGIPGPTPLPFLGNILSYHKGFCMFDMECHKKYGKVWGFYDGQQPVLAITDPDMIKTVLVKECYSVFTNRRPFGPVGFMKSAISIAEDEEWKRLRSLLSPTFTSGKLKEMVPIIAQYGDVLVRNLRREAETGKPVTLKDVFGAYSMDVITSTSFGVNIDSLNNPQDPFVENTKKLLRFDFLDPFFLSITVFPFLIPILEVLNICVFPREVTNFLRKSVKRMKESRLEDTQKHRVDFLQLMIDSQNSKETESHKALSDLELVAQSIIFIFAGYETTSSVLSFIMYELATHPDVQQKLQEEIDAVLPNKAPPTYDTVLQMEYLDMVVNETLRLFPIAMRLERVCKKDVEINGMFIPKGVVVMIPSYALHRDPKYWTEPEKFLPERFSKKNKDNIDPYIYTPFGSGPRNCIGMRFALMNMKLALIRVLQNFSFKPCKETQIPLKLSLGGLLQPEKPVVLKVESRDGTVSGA

Structure (SMILES) | IC50 [2, 3] [µM] | further results
C=CCN1CC(=O)N2C(Cc3ccc(O)cc3)C(=O)N(Cc3cccc4c(-c5ccccc5)cn(S(=O)(=O)c5ccccc5)c34)C[C@@H]2N1C(=O)NCc1ccccc1 (some centres unmarked) [compound 59] |  | IC50 [1]: 2.63 µM
C=CCN1CC(=O)N2[C@@H](Cc3ccc(O)cc3)C(=O)N(Cc3cccc(C(=O)N(C)C)n3)C[C@@H]2N1C(=O)NCc1ccccc1 [compound 39] |  | IC50 [1]: 35.3 µM
C=CCN1CC(=O)N2[C@@H](Cc3ccc(O)cc3)C(=O)N(Cc3cccc(C(=O)N4CCCC4)c3)C[C@@H]2N1C(=O)NCc1ccccc1 [compound 1] |  | IC50 [1]: 5 µM
C=CCN1CC(=O)N2[C@@H](Cc3ccc(O)cc3)C(=O)N(Cc3cccc4c3ncn4CC#N)C[C@@H]2N1C(=O)NCc1ccccc1 [compound 4] |  | IC50 [1]: 5.4 µM
C=CCN1CC(=O)N2[C@@H](Cc3ccc(O)cc3)C(=O)N(Cc3ccnc(C(N)=O)c3)C[C@@H]2N1C(=O)NCc1ccccc1 [compound 44] |  | IC50 [1]: 45.1 µM
C=CCN1CC(=O)N2[C@@H](Cc3ccc(O)cc3)C(=O)N(Cc3cccc4c3ncn4C)C[C@@H]2N1C(=O)NCc1ccccn1 [compound 47] |  | IC50 [1]: > 50 µM
C=CCN1CC(=O)N2[C@@H](Cc3ccc(O)cc3)C(=O)N(Cc3cccc(C(=O)NCC4CC4)c3)C[C@@H]2N1C(=O)NCc1ccccc1 [compound 12] |  | IC50 [1]: 7.65 µM
C=CCN1CC(=O)N2[C@@H](Cc3ccc(O)cc3)C(=O)N(Cc3cccc(C(=O)OCC)n3)C[C@@H]2N1C(=O)NCc1ccccc1 [compound 31] |  | IC50 [1]: 18.9 µM
C=CCN1CC(=O)N2[C@@H](Cc3ccc(O)cc3)C(=O)N(Cc3cccc(N4CCCC4=O)c3)C[C@@H]2N1C(=O)NCc1ccccn1 [compound 46] |  | IC50 [1]: > 50 µM
C=CCN1CC(=O)N2[C@@H](Cc3ccc(OS(N)(=O)=O)cc3)C(=O)N(Cc3cccc(C(=O)O)c3)C[C@@H]2N1C(=O)NCc1ccccc1 [compound 55] |  | IC50 [1]: > 50 µM
C=CCN1CC(=O)N2[C@@H](Cc3ccc(O)cc3)C(=O)N(Cc3cccc(C(=O)NC)c3)C[C@@H]2N1C(=O)NCc1ccccc1 [compound 13] |  | IC50 [1]: 8 µM
C=CCN1CC(=O)N2[C@@H](Cc3ccc(O)cc3)C(=O)N(Cc3csc4cc(NC(=O)NC)ccc34)C[C@@H]2N1C(=O)NCc1ccccc1 [compound 157] |  | IC50 [2, 4]: 12.4 ± 2.36 µM
C=CCN1CC(=O)N2[C@@H](Cc3ccc(O)cc3)C(=O)N(Cc3ccccc3-n3cnnn3)C[C@@H]2N1C(=O)NCc1ccccc1 [compound 164] | 15.7 ± 3.22 | 
C=CCN1CC(=O)N2[C@@H](CC3=CC(=O)NC3=O)C(=O)N(Cc3cccc4scnc34)C[C@@H]2N1C(=O)NCc1ccccc1 [compound 192] | 2.85 ± 0.79 | 
C=CCOc1c(CN2C[C@H]3N(C(=O)CN(CC=C)N3C(=O)NCc3ccccc3)[C@@H](Cc3ccc(O)cc3)C2=O)cccc1C(C)(C)C [compound 143] | 1.93 ± 0.18 | 
C=CCN1CC(=O)N2[C@@H](Cc3ccc(O)cc3)C(=O)N(Cc3cccc4c3oc3ccccc34)C[C@@H]2N1C(=O)NCc1ccccc1 [compound 26] | 0.52 ± 0.048 | 
C=CCN1CC(=O)N2[C@@H](Cc3ccc(O)cc3)C(=O)N(Cc3csc4c(NC(=O)OC)cccc34)C[C@@H]2N1C(=O)NCc1ccccc1 [compound 167] | 19.4 ± 3.4 | 

Structure (SMILES) | IC50 [2, 3] [µM] | further results
C=CCN1CC(=O)N2[C@@H](Cc3ccc(O)cc3)C(=O)N(Cc3ccc(F)c4scnc34)C[C@@H]2N1C(=O)NCCc1ccccc1 [compound 245] |  | IC50 [2, 4]: 6.19 ± 0.73 µM
C=CCN1CC(=O)N2[C@@H](Cc3ccc(OP(=O)(O)O)cc3)C(=O)N(Cc3cccc4c(-c5ccccc5)c[nH]c34)C[C@@H]2N1C(=O)NCc1ccccc1 [compound 22] |  | IC50 ([2]; Homo sapiens, SW480): 0.45 ± 0.29 µM
C=CCN1CC(=O)N2[C@@H](Cc3ccc(O)cc3)C(=O)N(Cc3cc4c(cc3[N+](=O)[O-])OCO4)C[C@@H]2N1C(=O)NCc1ccccc1 [compound 244] | 5.98 ± 1.03 | 
C=CCN1CC(=O)N2[C@@H](Cc3ccc(O)cc3)C(=O)N(Cc3cccc4c(C)c(-c5ccccc5F)n(S(=O)(=O)c5ccccc5)c34)C[C@@H]2N1C(=O)NCc1ccccc1 [compound 63] | 0.82 ± 0.25 | 
C=CCN1CC(=O)N2[C@@H](Cc3ccc(O)cc3)C(=O)N(Cc3cccc(C(=O)O)c3)C[C@@H]2N1C(=O)NCc1ccc(Cl)cc1Cl [compound 119] | 1.51 ± 0.16 | 
C=CCN1CC(=O)N2[C@@H](Cc3ccc(O)cc3)C(=O)N(Cc3cccc(-c4cccc(C#N)c4)c3)C[C@@H]2N1C(=O)NCc1ccccc1 [compound 126] | 1.58 ± 0.27 | 
C#Cc1ccc(CNC(=O)N2[C@H]3CN(Cc4ccc(F)c5scnc45)C(=O)[C@H](Cc4ccc(O)cc4)N3C(=O)CN2CC=C)cc1 [compound 44] | 0.67 ± 0.05 | 
C=CCN1CC(=O)N2[C@@H](Cc3ccc(O)cc3)C(=O)N(Cc3cn(-c4cccc(F)c4)c4ccccc34)C[C@@H]2N1C(=O)NCc1ccccc1 [compound 166] | 17.5 ± 5.57 | 
C=CCN1CC(=O)N2[C@@H](Cc3ccc(O)cc3)C(=O)N(Cc3cccnc3-c3ccccc3OC)C[C@@H]2N1C(=O)NCc1ccccc1 [compound 165] | 17.2 ± 4.11 | 
C=CCN1CC(=O)N2[C@@H](Cc3ccc(O)cc3)C(=O)N(Cc3cn(S(=O)(=O)c4ccc(C)cc4)c4ccccc34)C[C@@H]2N1C(=O)NCc1ccccc1 [compound 211] | 3.61 ± 0.47 | 
C=CCN1CC(=O)N2[C@@H](Cc3ccc(O)cc3)C(=O)N(Cc3cccc(-c4cccc(OC)c4)c3)C[C@@H]2N1C(=O)NCc1ccccc1 [compound 137] | 1.86 ± 0.3 | 
C=CCN1CC(=O)N2[C@@H](Cc3ccc(O)cc3)C(=O)N(Cc3cccc(Oc4ccccc4)c3)C[C@@H]2N1C(=O)NCc1ccccc1 [compound 146] | 1.99 ± 0.12 | 
C=CCN1CC(=O)N2[C@@H](Cc3ccc(OS(=O)(=O)NC)cc3)C(=O)N(Cc3ccc(F)cc3F)C[C@@H]2N1C(=O)NCc1ccccc1 [compound 151] | 10.2 ± 2.3 | 
C=CCN1CC(=O)N2[C@@H](Cc3ccc(NC=O)cc3)C(=O)N(Cc3cccc4scnc34)C[C@@H]2N1C(=O)NCc1ccccc1 [compound 50] | 0.72 ± 0.075 | 
C=CCN1CC(=O)N2[C@@H](Cc3ccc(O)cc3)C(=O)N(Cc3ccccc3S(=O)(=O)c3ccc(Cl)cc3)C[C@@H]2N1C(=O)NCc1ccccc1 [compound 170] | 2.07 ± 0.43 | 
C=CCN1CC(=O)N2[C@@H](Cc3ccc(O)cc3)C(=O)N(Cc3cccc(OC)c3OC)C[C@@H]2N1C(=O)NCc1ccccn1 [compound 262] | 8.48 ± 1.37 | 
C=CCN1CC(=O)N2[C@@H](Cc3ccc(O)cc3)C(=O)N(C/C=C/c3ccccc3)C[C@@H]2N1C(=O)NCc1ccccc1 [compound 149] | 10.1 ± 2.38 | 

Continued, in another order:

IC50 [2, 3] [µM] | Structure (SMILES) | further results
0.87 ± 0.32 | C=CCN1CC(=O)N2[C@@H](Cc3ccc(O)cc3)C(=O)N(Cc3ccc(F)c(C#N)c3)C[C@@H]2N1C(=O)NCc1ccccc1 [compound 69] | 
1.71 ± 0.28 | C=CCN1CC(=O)N2[C@@H](Cc3ccc(O)cc3)C(=O)N(Cc3cccc(C#N)c3)C[C@@H]2N1C(=O)NCc1ccccc1 [compound 132] | 
4.78 ± 0.69 | C=CCN1CC(=O)N2[C@@H](Cc3ccc(OS(N)(=O)=O)cc3)C(=O)N(Cc3cccc(C(N)=O)c3)C[C@@H]2N1C(=O)NCc1ccccc1 [compound 229] | 
7.1 ± 0.99 | C=CCN1CC(=O)N2[C@@H](Cc3ccc(O)cc3)C(=O)N(Cc3c[nH]c4ccc(OC)cc34)C[C@@H]2N1C(=O)NCc1ccccc1 [compound 253] | 
4.51 ± 0.72 | C=CCN1CC(=O)N2[C@@H](Cc3ccc(O)cc3)C(=O)N(Cc3ccc4ncoc4c3)C[C@@H]2N1C(=O)NCc1ccccc1 [compound 228] | 
28.8 ± 5.69 | C=CCN1CC(=O)N2[C@@H](Cc3ccc(O)cc3)C(=O)N(Cc3csc4cc(NS(N)(=O)=O)ccc34)C[C@@H]2N1C(=O)NCc1ccccc1 [compound 202] | 
6.98 ± 1.45 | C=CCN1CC(=O)N2[C@@H](Cc3ccc(O)cc3)C(=O)N(Cc3csc4c(NC(C)=O)cccc34)C[C@@H]2N1C(=O)NCc1ccccc1 [compound 250] | 
1.53 ± 0.17 | C=CCN1CC(=O)N2[C@@H](Cc3ccc(O)cc3)C(=O)N(Cc3cccc(-c4ccc(OC)nc4)c3)C[C@@H]2N1C(=O)NCc1ccccc1 [compound 121] | 
0.73 ± 0.03 | C=CCN1CC(=O)N2[C@@H](Cc3ccc(O)cc3)C(=O)N(Cc3cccc(C(=O)NCc4cccs4)c3)C[C@@H]2N1C(=O)NCc1ccccc1 [compound 53] | 
0.86 ± 0.09 | C=CCN1CC(=O)N2[C@@H](Cc3ccc(O)cc3)C(=O)N(Cc3csc4cc(N)ccc34)C[C@@H]2N1C(=O)NCc1ccccc1 [compound 68] | 
3.25 ± 0.41 | C=CCN1CC(=O)N2[C@@H](Cc3ccc(O)cc3)C(=O)N(Cc3cccc(C(N)=O)c3)C[C@@H]2N1C(=O)NCc1ccccc1 [compound 207] | 
10.8 ± 1.97 | C=CCN1CC(=O)N2[C@@H](Cc3ccc(O)cc3)C(=O)N(Cc3ccnc(C(N)=O)c3)C[C@@H]2N1C(=O)NCc1ccccc1 [compound 153] | 
1.31 ± 0.33 | C=CCN1CC(=O)N2[C@@H](Cc3ccc(O)cc3)C(=O)N(Cc3cccnc3C3CC3)C[C@@H]2N1C(=O)NCc1ccccc1 [compound 108] | 
1.13 ± 0.05 | C=CCN1CC(=O)N2[C@@H](Cc3ccc(O)cc3)C(=O)N(Cc3cccc(C#N)c3F)C[C@@H]2N1C(=O)NCc1ccccc1 [compound 97] | 
1.43 ± 0.27 | C=CCN1CC(=O)N2[C@@H](Cc3ccc(O)cc3)C(=O)N(Cc3cccc(-c4ccccc4O)c3)C[C@@H]2N1C(=O)NCc1ccccc1 [compound 115] | 
9.3 ± 0.53 | C=CCN1CC(=O)N2[C@@H](Cc3ccc(O)cc3)C(=O)N(Cc3cccc(C(=O)NO)c3)C[C@@H]2N1C(=O)NCc1ccccc1 [compound 265] | 
